{"source": "patent US20100266573A1", "about": "“METHOD AND MEANS FOR OBTAINING BRONCHORELAXATION” (Pharmalundensis AB, priority 2007, published 2010)", "key": {"[1]": {"conditions": "humans; cited from earlier work"}, "[2]": {"conditions": "may cause adverse effects in some individuals; cited from earlier work"}, "[3]": {"system": "patient with chronic obstructive pulmonary disease (COPD)", "test": "Administration of iodine on activated charcoal to a COPD patient, spirometric evaluation and observed bronchorelaxation", "format": "in vivo, human", "conditions": "same COPD patient; 50 mg elemental iodine in a gelatin capsule for a few days", "text": "A person, had been smoking cigarettes daily for many years, but quit about 10 years ago. The decision to quit smoking was caused by increasing problems from the airways, with repeated episodes of pneumonia and airway obstruction. These symptoms were usually treated with antibiotics, steroids and bronchodilators.\nAfter that, the airway symptoms increased considerably, with month-long episodes of cough and exercise-induced dyspnea.\nIn the following months the situation continued to worsen with loss of appetite, reduction of weight and severe dyspnea during rest, in spite of maximum treatment with anti-cholinergics, steroids and bronchodilators. The patient now felt desperately ill, and questioned how long they would be able to survive.\nThe severity of their condition prompted the patient to look for alternative treatments. […] […] […] A renewed spirometric evaluation a few months later confirmed the subjective improvements (FEV1=2.79 L, corresponding to 97.1% of their reference value and PEF=427 L/min, corresponding to 92.5% of their reference value).\nThe patient has continued to regularly take the combination for more than a year and still experiences the full benefit of it. A temporary discontinuation of the intake for a few days led to the reappearance of many of the symptoms. However, they quickly disappeared upon the resumption of the intake of iodinated activated charcoal. […]"}}}
{"smiles": "[Br-].[Na+]", "note": "[Sodium bromide, sodium bromide]", "values": [{"measurement": "no-effect level", "setting": "[1]", "value": 4, "unit": "mg/kg body weight"}]}
{"smiles": "II", "note": "[elemental iodine, iodine]", "values": [{"measurement": "iodine intake probably safe for the majority of the population", "setting": "[2]", "value": "less than or equal to 1,000 mg/day"}, {"measurement": "bronchorelaxing effect", "setting": "[3]", "value": "no distinct bronchorelaxing effect was observed"}]}
